As usually defined, the inhibition is how much of the control response was suppressed. One may read the IC50 as the midpoint of a concentration-inhibition curve.

Marks after values point to notes of the source that are not given here.

Data on 13 compounds can be found in PMC8495692 (ACS Omega, 2021).

The target of one assay is human IRAK1 (Homo sapiens, UniProt P51617). In words: IRAK1 kinase assay. It is filed as biochemical. The following applies: for inhibition at 10 µM: read-out: % of kinase inhibition (mean), IRAK1, 10 μM compound.
The subject of the next assay is human IRAK4. Briefly: IRAK4 kinase assay. The format is biochemical. As to conditions: 10 μM compound; ATP 10 μM.
For assay [1], the system named is cells overexpressing IRAK1. Briefly: MTT cytotoxicity on cells overexpressing IRAK1. It is filed as cell-based. The following applies: Homo sapiens, read-out: IC50, toxicity on cells overexpressing IRAK1.
The test system of assay [2] is LPS-stimulated PMA-induced human THP-1 macrophages. In words: Cytokine production, CBA array beads with flow cytometry. The format is cell-based. The following applies: 1 μM, 24 h, compared to control DMSO. (In general: In flow cytometry, cells or beads pass a laser one at a time.)
For a further assay, the system named is IRAK4. As to conditions: read-out: IC50 against IRAK4; cited from earlier work.
Another assay has as its system IRAK1. The following applies: read-out: IC50 against IRAK1; cited from earlier work.

Chain of human IRAK1 (P51617 whole entry): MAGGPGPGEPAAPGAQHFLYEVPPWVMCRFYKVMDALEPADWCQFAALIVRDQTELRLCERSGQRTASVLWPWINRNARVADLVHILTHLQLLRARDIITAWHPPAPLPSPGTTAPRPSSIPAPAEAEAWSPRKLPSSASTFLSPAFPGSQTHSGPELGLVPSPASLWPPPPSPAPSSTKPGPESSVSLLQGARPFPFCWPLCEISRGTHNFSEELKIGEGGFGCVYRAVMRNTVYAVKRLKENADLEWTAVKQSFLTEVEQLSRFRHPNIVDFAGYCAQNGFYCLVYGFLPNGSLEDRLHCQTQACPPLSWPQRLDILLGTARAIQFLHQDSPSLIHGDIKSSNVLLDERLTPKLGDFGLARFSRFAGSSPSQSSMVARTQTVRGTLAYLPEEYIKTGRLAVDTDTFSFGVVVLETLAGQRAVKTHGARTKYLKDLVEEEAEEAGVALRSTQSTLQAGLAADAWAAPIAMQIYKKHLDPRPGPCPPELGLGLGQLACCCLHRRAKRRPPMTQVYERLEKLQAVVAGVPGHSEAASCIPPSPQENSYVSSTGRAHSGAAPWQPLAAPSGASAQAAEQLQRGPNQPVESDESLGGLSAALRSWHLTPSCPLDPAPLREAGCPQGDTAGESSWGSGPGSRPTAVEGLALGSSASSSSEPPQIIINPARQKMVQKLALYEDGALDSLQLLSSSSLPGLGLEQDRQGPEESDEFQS

On to `O=C1C=CC(=O)C=C1` [1,4-benzoquinone], for which, at human IRAK1 (ATP 10 μM), the inhibition at 10 µM was 20%. In addition, in the assay with human IRAK4, the “% of kinase inhibition (mean), IRAK4” value is 0%.

Regarding `O=C1C=CC(=O)c2ccccc21` [1,4-naphthoquinone], the IC50 against human IRAK1 is 914 nM; in assay [1], under 10000 nM. Further, the “% of kinase inhibition (mean), IRAK4” value in the assay with human IRAK4 amounted to 10%. Besides, the “IL-8, IL-1β, and IL-10 levels in supernatant” value in assay [2] (p-value < 0.01) is “most downregulated”. Besides, the “levels of most of measured cytokines (IL-1β, TNF-α, IL-10, IL-6, IL-8, IL-12β) in supernatant” value in assay [2] (p-value < 0.05) is “significant decrease”.

With `C=CC(=O)Nc1cccc(C(=O)Nc2ccc(NC(=O)c3cccc(-c4ccn[nH]4)n3)cc2)c1` [JH-X-119-01], the 50% inhibitory concentration (IC50) in the assay with IRAK4 is over 10000 nM.

In turn, `Cc1cc(O)c2c(c1)C(=O)c1cc(O)cc(O)c1C2=O` [emodin, 1,3,8-trihydroxy-6-methylanthraquinone] yielded an IC50 against human IRAK1 of 1430 nM. For the same compound, the “% of kinase inhibition (mean), IRAK4” value in the assay on human IRAK4 stood at 9%.

Consider `Oc1ccc(O)cc1` [hydroquinone], for which, on human IRAK1 (ATP 10 μM), the inhibition at 10 µM stood at 15%. In addition, the “% of kinase inhibition (mean), IRAK4” value with human IRAK4 is 4%.

Take `O=C1C=CC(=O)c2c(O)cccc21` [juglone, 5-hydroxy-1,4-naphthoquinone]: the inhibition at 10 µM on human IRAK1 (ATP 10 μM) came out at 0%. For the same compound, the “% of kinase inhibition (mean), IRAK4” value in the assay with human IRAK4 was 0%.

With `CC(C)=CCC1=C(O)C(=O)c2ccccc2C1=O` [lapachol, 2-hydroxy-3-(3-methyl-2-butenyl)-1,4-naphthoquinone], the inhibition at 10 µM at human IRAK1 (ATP 10 μM) is 8%. Further, the “% of kinase inhibition (mean), IRAK4” value in the assay with human IRAK4 was found to be 3%.

Take `CC1=CC(=O)c2ccccc2C1=O` [menadione (Vitamin K3), menadione, reference compound]: at human IRAK1, the IC50 was 45100 nM. Also, the “% of kinase inhibition (mean), IRAK1” value on human IRAK1 (10 μM compound, ATP 10 μM) was 28 ^a %. The inhibition at 10 µM on human IRAK1 (ATP 10 μM) is over 20%. The “% of kinase inhibition (mean), IRAK4” value in the assay on human IRAK4 turned out to be 0%.

As to `C1=C/COCc2cc(ccc2OCCN2CCCC2)Nc2nccc(n2)-c2cccc(c2)COC/1` [pacritinib], the IC50 in the assay on IRAK1 was 6 nM; in the assay with IRAK4, 177 nM.

On to `CC1=C(C/C=C(\C)CCC[C@H](C)CCC[C@H](C)CCCC(C)C)C(=O)c2ccccc2C1=O` [phylloquinone (Vitamin K1), phylloquinone, reference compound], for which the inhibition at 10 µM at human IRAK1 (ATP 10 μM) was found to be 14%. The “% of kinase inhibition (mean), IRAK4” value in the assay on human IRAK4 came to 9%.

In turn, `CC1=CC(=O)c2c(O)cccc2C1=O` [plumbagin, 5-hydroxy-2-methyl-1,4-naphthoquinone] yielded an IC50 on human IRAK1 of 6330 nM. Besides, in the assay with human IRAK4, the “% of kinase inhibition (mean), IRAK4” value is on record as 0%.

`CC(C)=CCC(O)C1=CC(=O)c2c(O)ccc(O)c2C1=O` (stereo not drawn) [shikonin, 5,8-dihydroxy-2-(1-hydroxy-4-methyl-3-pentenyl)-1,4-naphthoquinone]: on human IRAK1, the IC50 came to 4530 nM. The “% of kinase inhibition (mean), IRAK4” value in the assay with human IRAK4 is 0%.

As to `CC1=CC(=O)C(C(C)C)=CC1=O` [thymoquinone, 2-isopropyl-5-methyl-1,4-benzoquinone], the inhibition at 10 µM on human IRAK1 (ATP 10 μM) is 5%. The “% of kinase inhibition (mean), IRAK4” value in the assay with human IRAK4 was 0%.
